Results published in patent US4162325A, “N-substituted lactams” (UCB, Societe Anonyme, priority 1976, dated 1979).
Several values for one entry are separate records, joined by “and”; a condition that tells them apart may be missing. Equal values may be shown once. Read-outs that look alike come from different tables or passages of the source.

Columns and labels:
mice = test: protection against aggressions of the hypoxic type (lethality induced by oxydipentonium chloride) in mice; format: in vivo; conditions: 1 h, mouse, intraperitoneal, one hour before curarizer, read-out: Proportion of survivors, treated animals; for responders at 10 µM, 10 µmol/kg: 0.01 mM/kg (B 2.6, G 2.6, H 2.4 mg/kg), control B 1/10, G 1/10, H 2/10; for responders at 100 µM, 100 µmol/kg: 0.1 mM/kg (F 24, G 25.5, H 24, I 30, J 21, K 23, L 23 mg/kg), control 1/10, F 0/10; for responders at 320 µM, 320 µmol/kg: 0.32 mM/kg (A 64, I 95, J 68, Piracetam 45 mg/kg), control 1/10, Piracetam 0/10
Procedure: Protection against aggressions of the hypoxic type is shown by a reduction of the lethality induced by a curarizer, the duration of action of which is short, namely oxydipentonium chloride (Brevatonal). At the doses used, this curarizer brings about a respiratory depression which, in turn, brings about a hypoxi-hypercapnic syndrome. A compound capable of protecting the brain during this brief period of hypoxia ensures survival. The compounds are administered to groups of 10 mice one hour before the injection of the curarizer; in a parallel test, a control group of 10 mice are given physiological salt solution before the curarizer. This test has also been developed in our laboratories (see, for the principle of this test, S. LEVIS et al.; Arch. Int. Pharmacodyn. Therap, 93,(1953),1,46-54).
Intraperitoneal administration of compounds of general formula (I), namely, products A, B, F, G, H, I, J, K, L, gives the results shown in Table III: […]

toxicity, LD50 in rat = conditions: in vivo
Description: The tested compounds have a remarkably low toxicity. Table V gives the toxicities, after intravenous administration, of some of the compounds of the present invention: […]

rats = test: active avoidance test, memory retention (paw pressure withdrawal) in rats; format: in vivo, rat; conditions: for minimal effective dose: sc, read-out: Active dose (minimum dose which reduces the stimulus to below 11 graduations)
Description: (A) The action on mnemic processes is first shown by the ability of the compounds to improve a type of memory retention in rats. The principle of the active avoidance test (see M. GREINDL and S. PREAT, Arch. Int. Pharmacodyn. Therap. 223,(1976),(1),168-171) developed in our laboratories and used for this purpose may be described as follows: the reaction of withdrawal of a rat's paw when subjected to an increasing and measured pressure is observed. The pressure at which the withdrawal reaction takes place is called the reaction threshold. This threshold is expressed by the number of graduations of the scale of the apparatus used (Analgesy meter UGO BASILE - Milano) and thus corresponds to the minimum pressure which brings about withdrawal when applied to the animal's paw. It is read directly from the scale of the apparatus used.
Inversely, animals treated with a substance having a positive effect on the mnemic processes (for example, piracetam) show a significant degree of retention: the stimulus at which the rats react by a reflex of avoidance is statistically lower than that of the control animals. A minimum of 20 rats are used per test (10 treated rats and 10 control rats) and the active dose is defined as the minimum dose which reduces the stimulus to below 11 graduations.
Subcutaneous administration of compounds of general formula (I), namely compounds A, G, H, I, J, K, L, N, O, P, Q, R, V, W, give, under these conditions, the effects indicated in Table I below.

SMILES	LD50 (toxicity, LD50 in rat; intravenous)	responders at 100 µM, 100 µmol/kg (mice) [%]	minimal effective dose (rats; Rattus norvegicus, 24 h)	activity compared with piracetam in the active avoidance test (rats; rat, subcutaneous)	also measured
CCCCNC(=O)CNC(=O)CN1CCCC1=O [Compound B, N-n-Butyl-2-(2-oxo-1-pyrrolidineacetamido)-acetamide]	> 4000 µmol/kg and > 1020 mg/kg				responders at 10 µM, 10 µmol/kg (mice): 60%; responders at 32 µM, 8.2 mg/kg (mice; ip, 0.032 mM/kg (B 8.2 mg/kg), control 1/10): 80%
CC(C)NC(=O)CNC(=O)CN1CCCC1=O [Compound F, N-isopropyl-2-(2-oxo-1-pyrrolidineacetamido)-acetamide]	> 3000 µmol/kg and > 723 mg/kg	40			
CCC(C(=O)NCC(N)=O)N1C(=O)CCC1(C)C (stereo not drawn) [Compound G, 2-(alpha-ethyl-5,5-dimethyl-2-oxo-1-pyrrolidineacetamido)-acetamide]	> 2800 µmol/kg and > 714 mg/kg	60	0.51 mg/kg and 2 µmol/kg	superior to that of piracetam	responders at 10 µM, 10 µmol/kg (mice): 40%
CCCNC(=O)CNC(=O)C(CC)N1C(=O)CCC1(C)C (stereo not drawn) [Compound I, 2-(alpha-ethyl-5,5-dimethyl-2-oxo-1-pyrrolidineacetamido)-N-propylacetamide]		50	5.94 mg/kg and 20 µmol/kg	superior to that of piracetam	responders at 320 µM, 320 µmol/kg (mice): 80%; LD50 (toxicity, LD50 in rat; ip, intraperitoneal): > 2500 µmol/kg and > 743 mg/kg
CC(C(=O)NCC(N)=O)N1CCCC1=O (stereo not drawn) [Compound J, 2-(alpha-methyl-2-oxo-1-pyrrolidineacetamido)-acetamide]	> 2600 µmol/kg and > 554 mg/kg	60	0.21 mg/kg and 1 µmol/kg	superior to that of piracetam	responders at 320 µM, 320 µmol/kg (mice): 100%
NC(=O)CNC(=O)C1(N2CCCC2=O)CC1 [Compound L, 2-[1-(2-oxo-pyrrolidino)-cyclopropanecarboxamido]-acetamide]		80	0.23 mg/kg and 1 µmol/kg	superior to that of piracetam	
CN(CC(N)=O)C(=O)CN1CCCC1=O [Compound N, 2-(N-methyl-2-oxo-1-pyrrolidineacetamido)-acetamide]			2.13 mg/kg and 10 µmol/kg	superior to that of piracetam	
CNC(=O)CN(C)C(=O)CN1CCCC1=O [Compound O, N-methyl-2-(N-methyl-2-oxo-1-pyrrolidineacetamido)-acetamide]			2.27 mg/kg and 10 µmol/kg	superior to that of piracetam	
CN(C)C(=O)CN(C)C(=O)CN1CCCC1=O [Compound P, N,N-dimethyl-2-(N-methyl-2-oxo-1-pyrrolidineacetamido)-acetamide]			2.41 mg/kg and 10 µmol/kg	superior to that of piracetam	
CC(NC(=O)CN1CCCC1=O)C(N)=O (stereo not shown) [Compound Q, 2-methyl-2-(2-oxo-1-pyrrolidineacetamido)-acetamide]			2.13 mg/kg and 10 µmol/kg	superior to that of piracetam	
NC(=O)C(NC(=O)CN1CCCC1=O)c1ccccc1 (stereo not shown) [Compound R, 2-(2-oxo-1-pyrrolidineacetamido)-2-phenylacetamide]			2.75 mg/kg and 10 µmol/kg	superior to that of piracetam	
NC(=O)CNC(=O)CN1CCCCCC1=O [Compound V, 2-(hexahydro-2-oxo-1H-azepine-1-acetamido)-acetamide]				superior to that of piracetam	minimal effective dose (rats; rat, subcutaneous, tested 24 hours later): 2.27 mg/kg and 10 µmol/kg
CCCCC(C(=O)NCC(N)=O)N1CCCC1=O (stereo not drawn) [Compound W, 2-(alpha-n-butyl-2-oxo-1-pyrrolidineacetamido)-acetamide]			2.55 mg/kg and 10 µmol/kg	superior to that of piracetam	
